pIC50: −log10 of the molar value. Where a name gives a salt, the structure may show the parent alone.

One series has as its target T1, μOR (Homo sapiens, UniProt P35372).
T1 construct: expressed in transfected cells; host or cells: CHO cells
Description: Opioid receptor competitive binding test, μOR. The note with it: compound at 10 μM; [3H]-labeled ligand; CHO cell membranes; ± SD of three measurements. The method, boiled down:
(§1)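 Membranes came from CHO cells expressing each opioid receptor; 20-30 µg protein was incubated with 1-2 nM [3H]-ligand and compound for 30 min at 30°C in Tris-HCl pH 7.4. Nonspecific binding was defined with 1 µM corresponding ligand. Bound radioactivity was filtered and scintillation-counted, and IC50 was converted to Ki via Cheng-Prusoff.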

The target in another series is T2, κOR (Homo sapiens, UniProt P41145).
T2 construct: expressed in transfected cells; host or cells: CHO cells
Description: Opioid receptor competitive binding test, κOR. The note with it: compound at 10 μM; [3H]-labeled ligand; CHO cell membranes; ± SD of three measurements. A digest of the protocol: as §1

For another series, the system named is Female Kunming mice. Description: Hot plate analgesia test in mice. In kind it is in vivo. The following applies: Mus musculus, ip, intraperitoneal, 55° C. hot plate. The method, boiled down:
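Female ~20 g mice on a 55 °C hot plate; hind-paw lick/lift latency is the pain threshold (cut-off 60 s; animals <5 s or >30 s excluded; baseline = mean of two readings 5 min apart). Thresholds taken 15, 30, 60 and 120 min after i.p. dosing; %MPE computed and ED50 derived from it.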

The subject of the next series is ICR mice. Description: Evaluation of side effects of constipation (defecation time, number, weight). Format: in vivo. The following applies: for Number of defecating animals: 10 mice per group; for Number of defecating animals / Fecal weight: within 5 hours; for Defecation time: first black stool; for Defecation time / water content of feces / Fecal weight: x ± SE; for Defecation time / water content of feces: only animals that defecate within 5 hours. The protocol: Constipation side effect is a common side effect of opioid drugs. This patent evaluates the possibility of constipation side effect by the influence of the compound on defecation time, defecation quantity and defecation weight of experimental animals.
ICR mice are randomly divided into 6 groups with 10 mice in each group after adaptive feeding. Fasting for 16-24 h, without stopping drinking, the blank control group is given solvent, during which the normal diet is: (1) the blank control group; (2) Compound diphenoxylate (7.5 mg/kg) group; (3) Low dose (1 mg/kg) group; (4) High dose (5 mg/kg) group of the compound to be tested.
After administration for 30 minutes, the mice in each group are given Chinese ink by gavage. After administration, the mice are kept in a single cage, and the excretion time of the first black stool is recorded. The number and weight (wet weight) of defecation particles in each mouse within 5 hours after administration are recorded. each group of mice are placed in an IVC cage with clean filter paper. The feces of each mouse are collected, put into a sterile 1.5 ml EP tube and stored in an ice box. During the collection, the number of defecation particles of each mouse is recorded, and the wet weight is weighed. After the collected feces are dried, the dry weight of the feces is recorded. Drying conditions: put fresh feces in an oven and bake at 100° C. for 5-10 minutes until the dry weight of feces is constant. The following formula is used to calculate the water content of feces, and the water content of feces (%)=(wet feces mass−dry feces mass)/wet feces mass×100%.
The data required for measurement and observation in this experiment are recorded in the corresponding table. All data are statistically processed by Microsoft Excel, and expressed as “mean standard error”. The data of each group are statistically analyzed by SPSS software package.

Series [1] is described as follows: Metabolic stability in liver microsomes, human. The following applies: human, microsomes, pH 7.4. The protocol:
(§2) The solution B is slowly dropped into solution A, and the pH is adjusted to 7.40±0.05.
(§3) • Control drug: 4 μL Verapamil solution (10 mM) is added with 96 μL DMSO and diluted to 400 μM; • Compound to be tested: 4 μL compound to be tested (10 mM) is added with 96 μL normal saline and diluted to 400 μM.
(§4) The microsomes are stored in the refrigerator at −80° C., thawed at room temperature after being taken out, and mixed gently.
(§5) […] PBS (100 mm, pH=7.4) solution is added to the negative sample. The solution is put into water bath at 37° C. and pre-incubated for 10 minutes; • B) After incubation, 2 μL reference drug or compound to be tested (400 μM) are added into each well to start the reaction.

Series [2] can be described thus: Metabolic stability in liver microsomes, rat. The following applies: rat, microsomes, pH 7.4. The protocol:
as §2, §3, §4, §5

A further series deals with CYP 2D6 (Homo sapiens, UniProt P10635). Put plainly: Inhibition of cytochrome P450 enzyme in human liver microsomes, CYP 2D6.
The next series deals with CYP 2C19 (Homo sapiens, UniProt P33261). Put plainly: Inhibition of cytochrome P450 enzyme in human liver microsomes, CYP 2C19.

At μOR, `[2H]C([2H])([2H])N(C[C@@H]1CN(C(=O)Cc2cc(F)c(F)cc2F)CC[C@@]1(O)c1cccc(OC)c1)C([2H])([2H])[2H]` [II-9hydrochloride] registered a μOR binding rate of 27.1 ± 1.1%. This compound also had a κOR binding rate at κOR of 17.2 ± 3.5%. In the series with Female Kunming mice, this compound showed an ED50 of 0.52 mg/kg. In addition, in the series on ICR mice (1 mg/kg), the “Number of defecating animals” value was found to be 8, the Defecation time is recorded as 182.6 ± 10.2 min, the “water content of feces” value worked out at 43.2 ± 2.5% and the Fecal weight came to 0.3399 ± 0.0983 g. In addition, in the series on ICR mice (5 mg/kg), the “Number of defecating animals” value was 2, the Defecation time is listed as 242.9 ± 11.9 min, the “water content of feces” value stood at 37.9 ± 8.9% and the Fecal weight stood at 0.0489 ± 0.0073 g. In series [1], the half-life at 2 μM was 5.32 min and the intrinsic clearance (microsomal CLint) at 2 μM came to 673 µL/min/mg. In series [2], the half-life at 2 μM came out at 5.55 min and the microsomal CLint at 2 μM came out at 681 µL/min/mg. On CYP 2D6, this compound gave a pIC50 of 4.86. This compound gave a negative-log IC50 (pIC50) against CYP 2C19 of under 4.30.

Compound `[2H]C([2H])([2H])N(C[C@@H]1CN(S(=O)(=O)Cc2ccccc2)CC[C@@]1(O)c1cccc(OC)c1)C([2H])([2H])[2H]` [II-3hydrochloride] yielded a μOR binding rate on μOR of 28.2 ± 1.5%. Also, the κOR binding rate at κOR was 15.3 ± 2.0%. This compound displayed an ED50 with Female Kunming mice of 0.5 mg/kg. In addition, in the series with ICR mice (1 mg/kg), the “Number of defecating animals” value came out at 8, the Defecation time is recorded as 152.8 ± 4.1 min, the “water content of feces” value is listed as 43.0 ± 2.1% and the Fecal weight was found to be 0.3396 ± 0.0965 g. Moreover, in the series on ICR mice (5 mg/kg), the “Number of defecating animals” value is recorded as 2, the Defecation time was 243.6 ± 10.5 min, the “water content of feces” value is 37.8 ± 8.9% and the Fecal weight is listed as 0.0482 ± 0.0053 g. In series [1], this compound showed a half-life at 2 μM of 5.46 min and a microsomal CLint at 2 μM of 685 µL/min/mg. Besides, in series [2], the half-life at 2 μM came out at 5.72 min and the microsomal CLint at 2 μM worked out at 697 µL/min/mg. For the same compound, at CYP 2D6, the pIC50 was 4.86. In addition, the pIC50 at CYP 2C19 was under 4.30.

For the origin of these results see patent US12509421B2, “Preparation and application of deuterated 4-phenyl-4-piperidinols” (priority 2022, dated 2025).
